Like-named read-outs stand apart in the source and are kept apart here.
Assays:
Assay in all cases: MIC determination and potentiation assay (microdilution broth)
[1] = tested on: LIM2 (NRS36), MRSA, SCCmec I, bla +; type: cell-based, Staphylococcus aureus; settings: Staphylococcus aureus
Protocol: (§1) MICs were determined by the microdilution broth method following the Clinical & Laboratory Standards Institute (CLSI) guidelines. […] Experiments were performed in triplicate in 96-well plates with 5×10^5 CFU·mL^−1 of bacteria. […] The MIC was the concentration for which bacterial growth was not observed.

[2] = tested on: HIP07920 (NRS21), MRSA/VISA, SCCmec IV, bla +; type: cell-based, Staphylococcus aureus; settings: Staphylococcus aureus; HIP07920 (NRS21); agent alone
Protocol: as §1

[3] = tested on: COL (NRS100), MRSA, SCCmec I, bla −; type: cell-based, Staphylococcus aureus; settings: Staphylococcus aureus; COL (NRS100); agent alone; read-out: MIC
Protocol: as §1

[4] = tested on: JE2, MRSA, SCCmec IV, bla −; type: cell-based, Staphylococcus aureus; settings: Staphylococcus aureus, MRSA, agent alone
Protocol: as §1

[5] = tested on: ATCC 29213, MSSA, bla +; type: cell-based, Staphylococcus aureus; settings: Staphylococcus aureus; ATCC 29213; agent alone; read-out: MIC
Protocol: as §1

[6] = tested on: NTCT 8325 (NRS77), MSSA, bla −; type: cell-based, Staphylococcus aureus; settings: Staphylococcus aureus; NTCT 8325 (NRS77); agent alone; read-out: MIC
Protocol: as §1

[7] = tested on: HIP15178 (VRS5), MRSA/VRSA, SCCmec II, bla +; type: cell-based, Staphylococcus aureus; settings: Staphylococcus aureus
Protocol: as §1

[8] = tested on: HIP 133170 (VRS3a), MRSA/VRSA, SCCmec IV, bla +; type: cell-based, Staphylococcus aureus; settings: Staphylococcus aureus
Protocol: as §1

[9] = tested on: USA300-0114 (NRS384), MRSA, SCCmec IV, bla +; type: cell-based; settings: Staphylococcus aureus; USA300-0114 (NRS384); agent alone; read-out: MIC
Protocol: as §1

[10] = tested on: HT 20020320 (NRS245), MRSA, SCCmec IV, bla +; type: cell-based; settings: Staphylococcus aureus
Protocol: as §1

[11] = tested on: MN-082 (NRS701), MRSA, SCCmec II, bla +; type: cell-based; settings: Staphylococcus aureus; MN-082 (NRS701); agent alone; read-out: MIC
Protocol: as §1

[12] = tested on: FPR3757, MRSA, USA300 clone, SCCmec IV, bla +; type: cell-based; settings: Staphylococcus aureus; FPR3757; agent alone; read-out: MIC
Protocol: as §1

[13] = tested on: 880, MRSA, SCCmec IV, bla +; type: cell-based; settings: Staphylococcus aureus, 880, agent alone, read-out: MIC
Protocol: as §1

[14] = tested on: CM05, MRSA, SCCmec I, bla +; type: cell-based; settings: Staphylococcus aureus
Protocol: as §1

[15] = tested on: AIS 1000505 (VRS10), MRSA, vancomycin-resistant, SCCmec II, bla +; type: cell-based; settings: Staphylococcus aureus
Protocol: as §1

[16] = tested on: 626 (NRS382), MRSA, SCCmec II, bla +; type: cell-based; settings: Staphylococcus aureus
Protocol: as §1

[17] = tested on: CO-23 (NRS661), MRSA, SCCmec II, bla +; type: cell-based; settings: Staphylococcus aureus
Protocol: as §1

[18] = tested on: CO-34 (NRS662), MRSA, SCCmec IV, bla +; type: cell-based; settings: Staphylococcus aureus; CO-34 (NRS662); agent alone; read-out: MIC
Protocol: as §1

[19] = tested on: NY-315 (NRS715), MRSA, SCCmec II, bla +; type: cell-based; settings: Staphylococcus aureus; NY-315 (NRS715); agent alone; read-out: MIC
Protocol: as §1

[20] = tested on: CT-19 (NRS676), MRSA, SCCmec IV, bla +; type: cell-based; settings: Staphylococcus aureus; CT-19 (NRS676); agent alone; read-out: MIC
Protocol: as §1

[21] = tested on: NRS128, MSSA, bla +; type: cell-based; settings: Staphylococcus aureus
Protocol: as §1

[22] = tested on: CA-127 (NRS643), MRSA, SCCmec IV, bla +; type: cell-based; settings: Staphylococcus aureus
Protocol: as §1

[23] = tested on: HI049, MRSA, USA300 clone, SCCmec IV, bla +; type: cell-based; settings: Staphylococcus aureus, agent alone
Protocol: as §1

[24] = tested on: HIP06297 (NRS17), MRSA, SCCmec II, bla +; type: cell-based; settings: Staphylococcus aureus; HIP06297 (NRS17); agent alone; read-out: MIC
Protocol: as §1

[25] = tested on: N315 (NRS70), MRSA, SCCmec II, bla +; type: cell-based; settings: Staphylococcus aureus
Protocol: as §1

[26] = tested on: ATCC 33591, MRSA, SCCmec III, bla +; type: cell-based; settings: Staphylococcus aureus
Protocol: as §1

Row | Structure (SMILES) | MIC [2] [µg/mL] | MIC [3] [µg/mL] | MIC [4] [µg/mL] | MIC [5] [µg/mL] | MIC [6] [µg/mL] | MIC [9] [µg/mL] | MIC [11] [µg/mL] | MIC [12] [µg/mL] | MIC [13] [µg/mL] | MIC [14] [µg/mL] | MIC [18] [µg/mL] | MIC [19] [µg/mL] | MIC [20] [µg/mL] | MIC [23] [µg/mL] | MIC [24] [µg/mL] | other results
1 | CCO/N=C(\C(=O)N[C@@H]1C(=O)N2C(C(=O)[O-])=C(Sc3nc(-c4cc[n+](C)cc4)cs3)CS[C@H]12)c1nsc(N)n1 [CPT, ceftaroline] | 0.5 | 1 | 1 | 0.06 | 0.25 | 0.5 | 2 | 0.5 | 1 | 2 | 1 | 1 | 1 | 1 | 1 | MIC ([1]; LIM2 (NRS36), agent alone, read-out: MIC): 1 µg/mL; MIC ([7]; HIP15178 (VRS5), agent alone, read-out: MIC): 1 µg/mL; MIC ([8]; HIP 133170 (VRS3a), agent alone, read-out: MIC): 1 µg/mL; MIC ([10]; HT 20020320 (NRS245), agent alone, read-out: MIC): 0.5 µg/mL; MIC ([15]; AIS 1000505 (VRS10), agent alone, read-out: MIC): 1 µg/mL; MIC ([16]; 626 (NRS382), agent alone, read-out: MIC): 1 µg/mL; MIC ([17]; CO-23 (NRS661), agent alone, read-out: MIC): 1 µg/mL; MIC ([21]; NRS128, agent alone, read-out: MIC): 0.06 µg/mL; MIC ([22]; CA-127 (NRS643), agent alone, read-out: MIC): 0.5 µg/mL; MIC ([25]; N315 (NRS70), agent alone, read-out: MIC): 1 µg/mL; MIC ([26]; ATCC 33591, agent alone, read-out: MIC): 1 µg/mL
2 | CO[C@@]1(NC(=O)Cc2cccs2)C(=O)N2C(C(=O)O)=C(COC(N)=O)CS[C@@H]21 [FOX, cefoxitin] | 64 | 256 | 64 | 4 | 4 | 64 | 256 | 64 | 64 | 512 | 64 | 256 | 64 | 64 | 256 | MIC [1]: 128 µg/mL; MIC [7]: 128 µg/mL; MIC [8]: 128 µg/mL; MIC [10]: 128 µg/mL; MIC [15]: 128 µg/mL; MIC [16]: 512 µg/mL; MIC [17]: 128 µg/mL; MIC [21]: 4 µg/mL; MIC [22]: 128 µg/mL; MIC [25]: 128 µg/mL; MIC [26]: 128 µg/mL

Reference: US20260284011A1, “COMPOUNDS FOR RESTORING SUSCEPTIBILITY TO BETA-LACTAM ANTIBIOTICS” (UNIVERSITY OF NOTRE DAME DU LAC, priority 2023, published 2026)
